Assay results reported in patent US20190256827A1, “EPIGENOME EDITING SYSTEMS AND METHODS” (STC.UNM, priority 2017, published 2019).

Tests used:
[1] = test system: GRM2 mRNA in HEK293T cells; assay: qPCR of GRM2 mRNA levels; format: cell-based, human; settings: GRM2 sgRNAs; ABA vs DMSO
Description: To determine if the new method can be used to modify H3K27Ac at other gene loci, sgRNAs were designed that target the promoter region of other genes with low expression levels in HEK293T cells, including GRM2, HBA and MYOD1 (Table 1).
Human embryonic kidney cell HEK293T (American Type Culture Collection, Manassas, Va.) was cultured in Dulbecco's modified Eagle's medium (DMEM) (Gibco) with 10% FBS (Atlanta Biologicals), 1× GlutaMax (Gibco, Thermo Fisher Scientific, Inc., Waltham, Mass.), and 1× penicillin/streptomycin (Pen/Strep; Gibco, Thermo Fisher Scientific, Inc., Waltham, Mass.). Cells (100,000/ml) were plated in 24-well or 10-cm cell culture plate the day before transfection. […]
Total RNA was extracted using the EZNA Total RNA Kit I (Omega Bio-tek, Inc., Norcross, Ga.). qPCR reactions were performed on cDNA prepared from 1,000 ng of total cellular RNA using the High-Capacity cDNA Reverse Transcription Kit (Applied Biosystems Co., Thermo Fisher Scientific, Inc., Foster City, Calif.). […] Data were analyzed using the SDS software, version 2.4 (Applied Biosystems Co., Thermo Fisher Scientific, Inc., Foster City, Calif.), by the ΔΔCt method: the Ct values of target gene were normalized to Ct values of GAPDH, the folds of target gene expression changes were normalized to experimental controls. Analyzed data are reported as the mean±s.e.m. for biological replicates. […]

[2] = test system: IL1RN locus in HEK293T cells; assay: ChIP-qPCR of FLAG-ABI-P300 and H3K27Ac at the IL1RN locus (dCas9-PYL-HA, FLAG-ABI-P300, IL1RN sgRNAs); format: cell-based, human
Description: To examine the recruitment of FLAG-ABI-P300, HEK293T cells were co-transfected with IL1RN sgRNAs, dCas9-PYL-HA and FLAG-ABI-P300 plasmids for 24 hours. Cells were then either treated or not treated with 100 μM ABA for another 24 hours before being harvested. Portions of the cell lysates were analyzed by using ChIP (with anti-FLAG antibody) and qPCR assays to quantify the level of FLAG-ABI-P300. […] To determine if the level of H3K27Ac changes in response to the FLAG-ABI-P300 localization, portions of the cell lysates produced in the above experiment were subjected to ChIP (using anti-H3K27Ac antibody) and qPCR assays to quantify the H3K27Ac enrichment.
Human embryonic kidney cell HEK293T (American Type Culture Collection, Manassas, Va.) was cultured in Dulbecco's modified Eagle's medium (DMEM) (Gibco) with 10% FBS (Atlanta Biologicals), 1× GlutaMax (Gibco, Thermo Fisher Scientific, Inc., Waltham, Mass.), and 1× penicillin/streptomycin (Pen/Strep; Gibco, Thermo Fisher Scientific, Inc., Waltham, Mass.). Cells (100,000/ml) were plated in 24-well or 10-cm cell culture plate the day before transfection. For each well of 24-well plate transfection, 500 ng of dCas9-PYL-HA, 420 ng of FLAG-ABI-P300, and a total amount of 200-ng mix of gRNAs, with a 50-ng per each gRNA, were mixed with 50×(v/w) Opti-MEM (Gibco, Thermo Fisher Scientific, Inc., Waltham, Mass.), then incubate with the same volume of 3 μg PEI-Opti-MEM solution for 20 minutes at room temperature. Then, 100 μL of PEI-combined plasmids were added to every single well of 24-well plate and cultured for 24 hours before experiments were performed. For a 10 cm plate, 1 mL of PEI-combined plasmids were needed. After six hours transfection, cells were washed and incubated for another 1-72 hours before experiments were performed.
ChIP protocol was optimized from the method in Molecular Cloning, Fourth edition (Cold Spring Harbor Laboratory Press, 2012). In brief, cells cultured in a 10-cm plate were fixed with 1 mL of cross-linking buffer (0.1 M NaCl, 1 mM EDTA, 0.5 mM EGTA, 50 mM HEPES and 11% formaldehyde), and shaken in room temperature for 15 minutes. Then 1.1 mL of 1.25 M glycine was added to the solution to stop crosslinking. After washing three times in ice cold PBS, cells were scraped and suspended in 10 mL of lysis buffer (50 mM HEPES, 140 mM NaCl, 1 mM EDTA, 10% Glycerol, 0.5% NP40, 0.25% Triton X-100), and rocked at 4° C. for 10 minutes. Cells were centrifuged at 1,000×g for 10 minutes and were resuspended in protein extraction buffer (200 mM NaCl, 1 mM EDTA, 0.5 mM EGTA, 10 mM Tris). Nuclei were pelleted by centrifuging at 1,000×g for 15 minutes at 4° C., resuspended in 2 mL of chromatin extraction buffer (1 mM EDTA, 0.5 mM EGTA, 10 mM Tris), and divided into six sonication tubes. Then, the samples were sonicated for 24 cycles at a 30 seconds on/30 seconds off protocol. Then samples were moved to a new centrifuge tube and insoluble debris were removed by centrifuge at 2,000×g for 20 minutes at 4° C. 10% volume of samples were stored at −80° C. as 10% input control. […] Then, sample-bound beads were washed eight times with RIPA buffer (50 mM HEPES, 1 mM EDTA, 1% NP40, 0.7% DOC, 0.5 M LiCl, 1× protease inhibitor complete cocktail), and finally re-suspended in TE (pH 8.0) buffer to wash. Then TE buffer was removed completely, 50 μL of elution buffer (10 mM Tris, 1 mM EDTA, 1% SDS) was added and the samples were incubated for 10 minutes at 65° C. and rocked every two minutes. The liquid was collected, 120 μL of elution buffer was added, and the samples were incubated at 65° C. overnight. Samples of 10% input were incubated with […] elution buffer at 65° C. overnight, too. To remove histones, washing buffer (140 μL of TE buffer, 3 μL of 20 mg/ml glycogen and 7 μL of 10 mg/ml Proteinase K) was added and incubated two hours at 37° C. Then ChIP samples were purified with phenol:chloroform:isoamyl alcohol (25:24:1) twice, then purified aqueous in chloroform. […]

[3] = IL1RN locus, time course after ABA addition

SMILES: CC1=CC(=O)CC(C)(C)[C@@]1(O)/C=C/C(C)=C\C(=O)O [ABA, abscisic acid]
- level of GRM2 mRNA [1]: increases correspondingly
- FLAG-ABI-P300 level at the IL1RN locus ([2]; 100 μM ABA for 24 hours vs not treated, anti-FLAG ChIP): increase in FLAG-ABI-P300 level
- H3K27Ac levels at the IL1RN locus ([2]; 24 h after ABA addition (100 μM) vs not treated, anti-H3K27Ac ChIP): H3K27Ac levels increase
- stability of H3K27Ac at the IL1RN locus after ABA removal ([2]; ABA for 12, 24 or 48 hours, then washed): the longer cells were treated with ABA, the slower H3K27Ac was removed after washing
- FLAG-ABI-P300 level at the IL1RN locus after washing to remove ABA ([2]; ABA for 12, 24 or 48 hours, then washed with non-ABA media): rapidly decreases to a near background level within one hour following washing
- time at which the level of H3K27Ac begins to rise [2, 3]: one hour after ABA addition
- time until which H3K27Ac continues to increase [2, 3]: 48 h
- time at which FLAG-ABI-P300 reaches a maximal level at the IL1RN locus ([2]; time course after ABA addition): 12 h
- time of FLAG-ABI-P300 recruitment to the IL1RN locus after ABA addition ([2]; time course after ABA addition): Within one hour
